Assays:
CAKI-1 = assay: panel of 60 human tumor cell lines, growth inhibition (Renal Cancer); settings: CAKI-1
MOLT-4 = assay: panel of 60 human tumor cell lines, growth inhibition (Leukemia); settings: MOLT-4
OVCAR-3 = assay: panel of 60 human tumor cell lines, growth inhibition (Ovarian Cancer); settings: OVCAR-3
HOP-92 = assay: panel of 60 human tumor cell lines, growth inhibition (Non-Small Cell Lung Cancer); settings: HOP-92
SF-539 = assay: panel of 60 human tumor cell lines, growth inhibition (CNS Cancer); settings: SF-539
NCI-H322M = assay: panel of 60 human tumor cell lines, growth inhibition (Non-Small Cell Lung Cancer)
COLO 205 = assay: panel of 60 human tumor cell lines, growth inhibition (Colon Cancer); settings: COLO 205
HOP-62 = assay: panel of 60 human tumor cell lines, growth inhibition (Non-Small Cell Lung Cancer); settings: HOP-62
SF-295 = assay: panel of 60 human tumor cell lines, growth inhibition (CNS Cancer); settings: SF-295
U251 = assay: as above; settings: U251
PC-3 = assay: panel of 60 human tumor cell lines, growth inhibition (Prostate Cancer); settings: PC-3
LOX IMVI = assay: panel of 60 human tumor cell lines, growth inhibition (Melanoma)
SW-620 = assay: panel of 60 human tumor cell lines, growth inhibition (Colon Cancer); settings: SW-620
K-562 = assay: panel of 60 human tumor cell lines, growth inhibition (Leukemia); settings: K-562
HT29 = assay: panel of 60 human tumor cell lines, growth inhibition (Colon Cancer); settings: HT29
SR = assay: panel of 60 human tumor cell lines, growth inhibition (Leukemia)
UACC-257 = assay: panel of 60 human tumor cell lines, growth inhibition (Melanoma); settings: UACC-257
MDA-MB-468 = assay: panel of 60 human tumor cell lines, growth inhibition (Breast Cancer); settings: MDA-MB-468

## C=C1C(=O)O[C@H]2[C@H]1CC/C(COC(=O)CCC(=O)N1CCC(C)CC1)=C\CC[C@@]1(C)O[C@@H]21 [JVM 2-70]
CAKI-1; Log10 Concentration −4.0
  Percent Growth: −93%
CAKI-1; Log10 Concentration −5.0
  Percent Growth: 4%
CAKI-1; Log10 Concentration −6.0
  Percent Growth: 88%
CAKI-1; Log10 Concentration −7.0
  Percent Growth: 95%
CAKI-1; Log10 Concentration −8.0
  Percent Growth: 90%
CAKI-1; NCI five dose
  GI50: 2.83 µM
  TGI: 1.11E−5
MOLT-4; Log10 Concentration −4.0
  Percent Growth: −49%
MOLT-4; Log10 Concentration −5.0
  Percent Growth: −9%
MOLT-4; Log10 Concentration −6.0
  Percent Growth: 115%
MOLT-4; Log10 Concentration −7.0
  Percent Growth: 119%
MOLT-4; Log10 Concentration −8.0
  Percent Growth: 110%
MOLT-4; NCI five dose
  GI50: 3.33 µM
  TGI: 8.45E−6
OVCAR-3; Log10 Concentration −4.0
  Percent Growth: −96%
OVCAR-3; Log10 Concentration −5.0
  Percent Growth: −2%
OVCAR-3; Log10 Concentration −6.0
  Percent Growth: 88%
OVCAR-3; Log10 Concentration −7.0
  Percent Growth: 105%
OVCAR-3; Log10 Concentration −8.0
  Percent Growth: 109%
OVCAR-3; NCI five dose
  GI50: 2.85 to 6 µM
  TGI: 9.47E−6
HOP-92; Log10 Concentration −4.0
  Percent Growth: −91%
HOP-92; Log10 Concentration −5.0
  Percent Growth: 3%
HOP-92; Log10 Concentration −6.0
  Percent Growth: 71%
HOP-92; Log10 Concentration −7.0
  Percent Growth: 83%
HOP-92; Log10 Concentration −8.0
  Percent Growth: 87%
HOP-92; NCI five dose
  GI50: 2.05 µM
  TGI: 1.07E−5
SF-539; Log10 Concentration −4.0
  Percent Growth: −90%
SF-539; Log10 Concentration −5.0
  Percent Growth: −20%
SF-539; Log10 Concentration −6.0
  Percent Growth: 92%
SF-539; Log10 Concentration −7.0
  Percent Growth: 97%
SF-539; Log10 Concentration −8.0
  Percent Growth: 93%
SF-539; NCI five dose
  GI50: 2.35 µM
  TGI: 6.58E−6
SF-539; read-out: LC50, NCI five dose
  CC50: 26.5 µM
NCI-H322M; Log10 Concentration −4.0
  Percent Growth: −83%
NCI-H322M; Log10 Concentration −5.0
  Percent Growth: 93%
NCI-H322M; Log10 Concentration −6.0
  Percent Growth: 102%
NCI-H322M; Log10 Concentration −7.0
  Percent Growth: 108%
NCI-H322M; Log10 Concentration −8.0
  Percent Growth: 102%
NCI-H322M; NCI five dose
  GI50: 17.6 µM
  TGI: 3.39E−5
COLO 205; Log10 Concentration −4.0
  Percent Growth: −88%
COLO 205; Log10 Concentration −5.0
  Percent Growth: −11%
COLO 205; Log10 Concentration −6.0
  Percent Growth: 104%
COLO 205; Log10 Concentration −7.0
  Percent Growth: 107%
COLO 205; Log10 Concentration −8.0
  Percent Growth: 94%
COLO 205; NCI five dose
  GI50: 2.94 µM
  TGI: 8.03E−6
HOP-62; Log10 Concentration −4.0
  Percent Growth: −68%
HOP-62; Log10 Concentration −5.0
  Percent Growth: 78%
HOP-62; Log10 Concentration −6.0
  Percent Growth: 91%
HOP-62; Log10 Concentration −7.0
  Percent Growth: 92%
HOP-62; Log10 Concentration −8.0
  Percent Growth: 86%
HOP-62; NCI five dose
  GI50: 15.5 µM
  TGI: 3.41E−5
SF-295; Log10 Concentration −4.0
  Percent Growth: −72%
SF-295; Log10 Concentration −5.0
  Percent Growth: 74%
SF-295; Log10 Concentration −6.0
  Percent Growth: 93%
SF-295; Log10 Concentration −7.0
  Percent Growth: 93%
SF-295; Log10 Concentration −8.0
  Percent Growth: 89%
SF-295; NCI five dose
  GI50: 14.7 µM
  TGI: 3.23E−5
U251; Log10 Concentration −4.0
  Percent Growth: −90%
U251; Log10 Concentration −5.0
  Percent Growth: 90%
U251; Log10 Concentration −6.0
  Percent Growth: 99%
U251; Log10 Concentration −7.0
  Percent Growth: 95%
U251; Log10 Concentration −8.0
  Percent Growth: 95%
U251; NCI five dose
  GI50: 16.7 µM
  TGI: 3.16E−5
PC-3; Log10 Concentration −4.0
  Percent Growth: −72%
PC-3; Log10 Concentration −5.0
  Percent Growth: 66%
PC-3; Log10 Concentration −6.0
  Percent Growth: 94%
PC-3; Log10 Concentration −7.0
  Percent Growth: 93%
PC-3; Log10 Concentration −8.0
  Percent Growth: 94%
PC-3; NCI five dose
  GI50: 13 µM
  TGI: 3.00E−5
LOX IMVI; Log10 Concentration −4.0
  Percent Growth: −84%
LOX IMVI; Log10 Concentration −5.0
  Percent Growth: 4%
LOX IMVI; Log10 Concentration −6.0
  Percent Growth: 91%
LOX IMVI; Log10 Concentration −7.0
  Percent Growth: 96%
LOX IMVI; Log10 Concentration −8.0
  Percent Growth: 96%
LOX IMVI; NCI five dose
  GI50: 2.95 µM
  TGI: 1.10E−5
SW-620; Log10 Concentration −4.0
  Percent Growth: −80%
SW-620; Log10 Concentration −5.0
  Percent Growth: 1%
SW-620; Log10 Concentration −6.0
  Percent Growth: 79%
SW-620; Log10 Concentration −7.0
  Percent Growth: 97%
SW-620; Log10 Concentration −8.0
  Percent Growth: 99%
SW-620; NCI five dose
  GI50: 2.33 µM
  TGI: 1.02E−5
K-562; Log10 Concentration −4.0
  Percent Growth: −38%
K-562; Log10 Concentration −5.0
  Percent Growth: 7%
K-562; Log10 Concentration −6.0
  Percent Growth: 90%
K-562; Log10 Concentration −7.0
  Percent Growth: 109%
K-562; Log10 Concentration −8.0
  Percent Growth: 109%
K-562; NCI five dose
  GI50: 3.06 µM
  TGI: 1.45E−5
HT29; Log10 Concentration −4.0
  Percent Growth: −87%
HT29; Log10 Concentration −5.0
  Percent Growth: 19%
HT29; Log10 Concentration −6.0
  Percent Growth: 103%
HT29; Log10 Concentration −7.0
  Percent Growth: 106%
HT29; Log10 Concentration −8.0
  Percent Growth: 99%
HT29; NCI five dose
  GI50: 4.28 µM
  TGI: 1.51E−5
SR; Log10 Concentration −4.0
  Percent Growth: −38%
SR; Log10 Concentration −5.0
  Percent Growth: 6%
SR; Log10 Concentration −6.0
  Percent Growth: 84%
SR; Log10 Concentration −7.0
  Percent Growth: 102%
SR; Log10 Concentration −8.0
  Percent Growth: 101%
SR; NCI five dose
  GI50: 2.72 µM
  TGI: 1.39E−5
UACC-257; Log10 Concentration −4.0
  Percent Growth: −86%
UACC-257; Log10 Concentration −5.0
  Percent Growth: 23%
UACC-257; Log10 Concentration −6.0
  Percent Growth: 83%
UACC-257; Log10 Concentration −7.0
  Percent Growth: 92%
UACC-257; Log10 Concentration −8.0
  Percent Growth: 91%
UACC-257; NCI five dose
  GI50: 3.57 µM
  TGI: 1.64E−5
MDA-MB-468; Log10 Concentration −4.0
  Percent Growth: −69%
MDA-MB-468; Log10 Concentration −5.0
  Percent Growth: −33%
MDA-MB-468; Log10 Concentration −6.0
  Percent Growth: 52%
MDA-MB-468; Log10 Concentration −7.0
  Percent Growth: 92%
MDA-MB-468; Log10 Concentration −8.0
  Percent Growth: 88%
MDA-MB-468; NCI five dose
  GI50: 1.06 µM
  TGI: 4.06E−6
MDA-MB-468; read-out: LC50, NCI five dose
  CC50: 29.8 µM

Source: patent US9469650B2, “Melampomagnolide B derivatives” (BOARD OF TRUSTEES OF THE UNIVERSITY OF ARKANSAS, priority 2013, dated 2016)
